{
  "source": "patent US20130115246A1",
  "about": "(Lupin Atlantis Holdings, S.A., priority 2011, published 2013)",
  "origin": "cited, not measured here",
  "conditions": "in vivo",
  "data": [
    {"molecule": "CC(C)(Oc1ccc(C(=O)c2ccc(Cl)cc2)cc1)C(=O)O", "note": "[Fenofibric acid]", "values": [
      {"measurement": "elimination half-life", "value": "about 20 hours"}
    ]}
  ]
}
